Patent US20160319277A1, “METHODS OF IMPROVED PROTEIN PRODUCTION USING MIRNAs AND SIRNAs” (THE JOHNS HOPKINS UNIVERSITY, priority 2015, published 2016)

Experiments:
[1] = test system: HEK 293 cell lines expressing luciferase, GPC3-hFc, NTSR1-GFP, SERT-GFP; assay: Validation transfection of siRNAs against ten selected genes in four HEK 293 cell lines expressing different reporter proteins; type: cell-based, human; details: 40 nM, 1 representative siRNA per gene; for expression of reporter proteins: luciferase, GPC3-hFc, NTSR1-GFP, SERT-GFP
Method: Ten targeted genes were selected and tested in four HEK 293 cell lines expressing different reporter proteins, glycan-3 hFc-fision protein (GPC3-hFc), neurotensin receptor type 1-GFP (NTSR1-GFP) and serotonin transporter-GFP (SERT-GFP), using 1 representative siRNA for each gene. Transfection was performed in 12-well plate format. 500 μL of serum free DMEM media containing siRNA and Lipofectamine™ RNAiMax was incubated in each well for 20 min at ambient temperature and 500 μL DMEM containing 20% FBS and cells was then added for transfection. The final siRNA concentration in each well was 40 nM. Lipofectamine™ RNAiMax volume and cell seeding number in each well have been optimized for each cell line (Table 2).
5 days after transfection, clarified cell culture supernatant was used for determination of GPC3-hFc concentration by ELISA and cells were detached and counted by trypan blue exclusion using a CEDEX™ cell quantification system (Roche, Mannheim, Germany). AffiniPure™ F(ab′)2 Fragment Goat Anti-Human IgG (min X Bov, Ms, Rb Sr Prot, Cat. 109-006-170, Jackson Immunology, 5 μg/mL in PBS) was used to coat a 96-well plate (50 μL per well) at 4° C. overnight. After blocking the plate with 2% BSA in PBS, 50 μl of pre-diluted cell culture supernatant was added, and the plate was incubated at room temperature for 1 h to allow binding to occur. After the plate was washed twice with PBS containing 0.05% Tween 20, Peroxidase-conjugated AffiniPure™ Goat-anti-human IgG (Cat. 109-035-098, Jackson Immunology) was added at 1:4000 dilution (50 μL/well). Following incubation at room temperature for 1 hr, the plate was washed 4 times and signals were detected with Peroxidase Substrate System (KPL).
3 days after transfection, cells were induced with 1 μg/mL tetracycline. 24 hours later, cells from each well were detached with non-enzymatic cell dissociation buffer (Gibco, Cat. No. 13150-016) and washed twice with cold PBS. Cell densities were adjusted to 0.5 million cells/ml with PBS and then subjected to flow cytometry analysis. Green fluorescence was measured with Guava Easycyte 5HT™ and Incyte™ software (Millipore). The green fluorescence signal and cell gating were adjusted using uninduced T-REx-293-NTSR1-GFP cells, with more than 99.5% of the cells in low fluorescence range (<100). The setting was kept the same for all cell samples.

[2] = test system: CMV-Luc2-HygroHEK293 cell line; assay: Validation of miRNAs with luciferase-expressing cells (ONE-Glo / CellTiter-Glo, 12-well); type: cell-based, human; details: 40 nM miRNA, 72 h, 12-well, versus siN.C.
Method: CMV-Luc2-HygroHEK293 cell line constitutively expressing luciferase is purchased from Promega. Validation transfections were performed in 12-well plates with miScript miRNA mimics (Qiagen, Cat. No. 219600-S0), SilencerSelect™ Negative Control #2 and lethal control siRNA (Qiagen AllStars Cell Death Control™) served as a control for transfection efficiency. Cells were transfected in duplicates as described above in the screening method with the following modification: 0.1 million cells were transfected with 40 nM miRNA using 6.25 ul Lipofectamine™ RNAiMax in a total volume of 1 mL of media. 72 hours after transfection, 500 μL of ONE-Glo™ Reagent (Promega) was added to one set of replicates for luciferase activity quantification and 500 μL of CellTiter-Glo™ Reagent (Promega) was added to the second set of replicates for viable cell density measurement. All plates were incubated at room temperature for 20 minutes to stabilize luminescent signal and then measured with SpectraMax i3™ plate reader (Molecular Devices). Per cell luciferase production was calculated from overall luciferase activity and viable cell number.

[3] = test system: T-REx-293-NTSR1-GFP cells; assay: High-throughput human miRNA mimic library screen, image-based per cell green fluorescence (NTSR1-GFP expression); details: per cell green fluorescence intensity; for MAD-based z-score: 72 h after transfection plus 24 h tetracycline induction
Method: T-REx-293-NTSR1-GFP cells were screened with a miRNA mimic library (Qiagen) based on Sanger miRBase™ 13.0 and consisting of 875 miRNAs mimics. For transfection, 0.8 pmol of each mimic was spotted to 384 well plate wells (Corning) and 20 μL of serum-free DMEM containing 0.1 μL of Lipofectamine™ RNAiMax (Life Technologies) was then added to each well. This lipid-miRNA mixture was incubated at ambient temperature for 30 min prior to adding 2000 cells in 20 μL of DMEM containing 20% certified FBS (Gibco). Transfected cells were incubated at 37° C. in 5% CO2 for 72 hours and induced with 1 μg/mL tetracycline for 24 hours for NTSR1-GFP expression. Cells were then fixed with 2% paraformaldehyde (Electron Microscopy Sciences), stained with Hoechst™ 33342 (Life Technologies) for 45 minutes and gently washed with PBS. Plates were imaged with an ImageXpress Micro XL™ (Molecular Devices). Total cell number and per cell green fluorescence intensity were calculated using MetaXpress™ software (Molecular Devices) employing the Multi-Wavelength Cell Scoring™ application module. […] A full column of positive control siRNA targeting GFP (GFP-22 siRNA, Qiagen) was also used as on-plate reference for transfection efficiency. The median absolute deviation (MAD)-based z-score was calculated for each sample.

NTSR1 = assay: [3H]NT binding assay on detergent-solubilized cells for functional expression of NTSR1; type: cell-based; details: for improvement of functional expression of NTSR1 compared with siN.C.: [3H]NT binding
Method: Validation transfections were performed in 12-well plates with miScript™ miRNA mimics (Qiagen, Cat. No. 219600-S0), SilencerSelect™ Negative Control #2 and lethal control siRNA (Qiagen AllStars Cell Death Control™) served as a control for transfection efficiency. Cells were transfected as described for screening except 0.15 million cells were transfected with 40 nM miRNA using 6.25 ul Lipofectamine™ RNAiMax in a total volume of 1 mL of media. 72 hours after transfection, cells were induced with 1 μg/mL tetracycline. 24 hours later, cells from each well were detached with non-enzymatic cell dissociation buffer (Gibco, Cat. No. 13150-016) and washed twice with cold PBS. Cell densities and viability were determined by trypan blue exclusion using a CEDEX™ cell quantification system (Roche, Mannheim, Germany). Based on the counts, cell densities were adjusted to 0.5 million cells/ml with PBS and then subject to flow cytometry analysis. The remaining cells were pelleted and frozen on dry ice for [^3H]NT binding assays.
The detergents n-Dodecyl-β-D-maltoside (LM), 3-[(3-cholamidopyropyl) dimethylammonio]-1-propane sulfonate (CHAPS) and cholesteryl hemisuccinate Tris salt (CHS) were obtained from Anatrace. Cell pellets from 2 mL of suspension culture were suspended in Tris-glycerol-NaCl buffer. Then the detergents LM, CHAPS and CHS were added to give a final buffer composition of 50 mM TrisHCl pH 7.4, 200 mM NaCl, 30% (v/v) glycerol, 1% (w/v) LM, and 0.6% (w/v) CHAPS and 0.12% (w/v) CHS in a total volume of 0.5 mL. The samples were placed on a rotating mixer at 4° C. for 1 hour. Cell debris and non-solubilized material were removed by ultracentrifugation (TL100 rotor, 60 k rpm, 4° C., 30 min in Optima Max™ bench-top ultracentrifuge, Beckman), and the supernatants containing detergent-solubilized NTSR1 were used to determine the total number of expressed receptors by a detergent-based radio-ligand binding assay (see below).
Tritiated neurotensin agonist [^3H]NT ([3,11-tyrosyl-3,5-^3H(N)]-pyro[…] SEQ ID NO:27) was purchased from Perkin Elmer. Ligand-binding assays with detergent-solubilized receptors were carried out in TEBB assay buffer (50 mM Tris pH 7.4, 1 mM EDTA, 40 μg/mL bacitracin, 0.1% BSA) containing 0.1% (w/v) LM, 0.2% (w/v) CHAPS and 0.04% (w/v) CHS. For one-point assays, receptors were incubated with 2 nM [^3H]NT on ice for 1 hour in a volume of 150 μL. The concentration of [^3H]NT used was at least 5-fold above the apparent dissociation constants for detergent-solubilized NTSR1 to allow high receptor occupancy. Separation of the receptor-ligand complex from free ligand (100 μL) was achieved by centrifugation-assisted gel filtration using Bio-Spin™ 30 Tris columns (BioRad), equilibrated with RDB buffer (50 mM Tris-HCl, pH 7.4, 1 mM EDTA, 0.1% (w/v) LM, 0.2% (w/v) CHAPS, 0.04% (w/v) CHS). Non-specific [^3H]NT binding of 220 dpm was subtracted from total binding to calculate the total amount of receptors in T-REx-293-NTSR1-GFP cells. The number of functional NTSR1 was estimated by specific [^3H]NT binding assuming one ligand-binding site per receptor molecule. The number of cells in the assay was derived by cell counting at cell harvest. This approach led to the calculation of the parameter “receptors/cell”.

HEK-GPC3-hFc cell line = assay: Validation of miRNAs with GPC3-hFc-expressing cells (ELISA and cell count); type: cell-based, human; details: 40 nM miRNA, 6 days after transfection, versus siN.C.
Method: HEK-GPC3-hFc cell line constitutively secreting glypican-3 hFc-fusion protein (GPC3-hFc) was a gift from the National Cancer Institute of the NIH. Cells were grown in DMEM supplemented with 10% FBS in a humidified incubator set at 37° C. and 5% CO2.
Cells were transfected in 12-well plates as described above in the screening method with the following modification: 0.15 million cells were transfected with 40 nM miRNA using 6.25 ul Lipofectamine™ RNAiMax in a total volume of 1 mL of media. 6 days after transfection, cell culture supernatant was collected and cleared using centrifuge for GPC3-hFc concentration determination with ELISA and cells were detached and counted by trypan blue exclusion using a CEDEX™ cell quantification system (Roche, Mannheim, Germany). Per cell GPC3-hFc production can be calculated from overall GPC3-hFc yield and viable cell number.
AffiniPure™ F(ab′)2 Fragment Goat Anti-Human IgG (min X Bov, Ms, Rb Sr Prot, Cat. 109-006-170, Jackson Immunology) was used to coat a 96-well plate at 5 μg/mL in PBS buffer, 50 μL per well, at 4° C. overnight. After the plate was blocked with 2% BSA in PBS buffer, pre-diluted cell culture supernatant was added, and the plate was incubated at room temperature for one hour to allow binding to occur. After the plate was washed twice with PBS containing 0.05% Tween 20, Peroxidase-conjugated AffiniPure™ Goat-anti-uman IgG (Cat. 109-035-098, Jackson Immunology) was added at 1:4000 dilutions, 50 ul/well. Following incubating at room temperature for one hour, the plate was washed 4 times and detected with Peroxidase Substrate System (KPL).

| Substance | viable cell number [1] | expression of reporter proteins [1] | improvement of luciferase expression (per cell luciferase activity) [2] | Signal relative to negative control (%) [3] | MAD-based z-score [3] | improvement of functional expression of NTSR1 compared with siN.C. (NTSR1) | change of overall GPC3-hFc production (HEK-GPC3-hFc cell line) | improvement of per cell GPC3-hFc secretion (HEK-GPC3-hFc cell line) | functional neurotensin receptor molecules per cell (NTSR1; specific [3H]NT binding, 2 nM) |
| --- | --- | --- | --- | --- | --- | --- | --- | --- | --- |
| INTS1 siRNA: 1 representative siRNA for gene INTS1 used in validation transfection; sequence not stated (guide AGAUCUUUGUCAAGGUGUATT; other strand without entry, further chemistry not given here; listed as Homo sapiens) | significantly reduced viable cell number | consistently improved | – | – | – | – | – | – | – |
| PPP2R1A siRNA: 1 representative siRNA for gene PPP2R1A used in validation transfection; sequence not stated (guide CUUCGACAGUACUUCCGGATT; other strand without entry, further chemistry not given here; listed as Homo sapiens) | minimal negative effects | consistently improved | – | – | – | – | – | – | – |
| UAAGGUGCAUCUAGUGCAGAUAG (listed as RNA, chemistry not given here; listed as Homo sapiens) [miR-18a-5p, human miRNA mimic] | – | – | relevant for improving luciferase expression | 149% | 2.0 | improved functional activity levels | effectively enhanced overall GPC3-hFc | enhanced per cell GPC3-hFc secretion | – |
| UAAUACUGUCUGGUAAAACCGU (listed as RNA, chemistry not given here; listed as Homo sapiens) [miR-429, human miRNA mimic] | – | – | relevant for improving luciferase expression | 212% | 4.2 | improved functional activity levels | – | enhanced per cell GPC3-hFc secretion | – |
| UUGGGGAAACGGCCGCUGAGUG [miR-2110] | – | – | relevant for improving luciferase expression | 160% | 2.3 | – | – | enhanced per cell GPC3-hFc secretion | 13.8 million functional neurotensin receptor molecules per cell |
